# According to patent publication US20250144187A1, “COMBINATION OF HYDROLASES AND ANTI-MICROORGANISM DRUGS AND USES THEREOF” (CENTRE FOR EYE AND VISION RESEARCH LIMITED, priority 2023, published 2025):
# Tests used:
# MRSA = experiment: ATP, NADH and pyruvate levels, cefdinir/lysozyme; type: cell-based, Staphylococcus aureus; settings: 1 hour
# Method: 12) ATP, NADH and pyruvate levels. According to the described method [Liu Y et al., Adv Sci 7, 1902227 (2020)], mid-log-phase MRSA with an OD600 of 0.4 to 0.6 was treated with lysozyme, cefdinir or their combination at different concentrations. Those without any treatment served as control group. After 1 hour incubation at 37° C. bacteria with similar load (according to OD600, 1 ml bacteria were collected if the OD600 was 1) were collected, washed by cold PBS for 3 times. […] Here, 20 μl of each supernatant were added each well of white 96-well plate, in which each well had been pre-reactivated by 100 μl of ATP test solution (Beyotime. Co. Ltd, China), followed by luminometer measurement. To analyze the NAD^+/NADH ratio [Xue C et al., Front Pharmacol 12, 6000296 (2021)], half of lysis supernatants were frozen at −20° C. immediately and the rest half were firstly heated at 60° C. for 30 minutes in PCR machine to decompose NAD^+ if had, Next, these heated supernatants were further centrifuged at 18,000 g at 4° C. for 20 minutes to collect their supernatants. […] After 30 minutes incubation in the prevention of light, orange formazan was observed and then the absorbance at 450 nm was recorded. […] By recording the absorbance at 520 nm, the pyruvate level in each sample was figured out according to the standard formula. […]
# MRSE = experiment: High-throughput screening of 4989 compounds with human lysozyme; type: cell-based, Staphylococcus epidermis; settings: for MRSE Inhibition ratio (%): compound 2.5 μM + 1 mg/ml lysozyme relative to compound only
structure (smiles),measurement,setting,value
"C=CC1=C(C(=O)O)N2C(=O)[C@@H](NC(=O)/C(=N\O)c3csc(N)n3)[C@H]2SC1 [cefdinir, Cefdinir]",increasing ATP level,MRSA; cefdinir (0.5 μg/ml) + lysozyme (0.5 mg/ml),1.5 fold
same,increase in the ratio of NAD+/NADH,MRSA; cefdinir treatment,1.3 fold
same,MRSE Combination,"MRSE; OD600 at 24-hour, compound 2.5 μM + 1 mg/ml lysozyme",0.0528
same,MRSE Drug only,"MRSE; OD600 at 24-hour, compound 2.5 μM without lysozyme",0.6206
same,MRSE Inhibition ratio (%),MRSE,above 90%
same,MRSE Inhibition ratio (%),MRSE; listed as Ce ? dinir,99.68%
